From ChEMBL document CHEMBL4665642, “Anticancer profile of newly synthesized BRAF inhibitors possess 5-(pyrimidin-4-yl)imidazo[2,1-b]thiazole scaffold” (Bioorg Med Chem, 2019)

What was measured:
Assay type in all cases: functional
Settings in all cases: read-out: Activity
NCI/ADR-RES = assay: Cytotoxicity against human NCI/ADR-RES cells assessed as cell viability at 10 uM incubated for 48 hrs by sulforhodamine B assay relative to control
SF-268 = assay: Cytotoxicity against human SF-268 cells assessed as cell viability at 10 uM incubated for 48 hrs by sulforhodamine B assay relative to control
HL-60(TB) = assay: Cytotoxicity against human HL-60(TB) cells assessed as cell viability at 10 uM incubated for 48 hrs by sulforhodamine B assay relative to control
OVCAR-3 = assay: Cytotoxicity against human OVCAR-3 cells assessed as cell viability at 10 uM incubated for 48 hrs by sulforhodamine B assay relative to control
M14 = assay: Cytotoxicity against human M14 cells assessed as cell viability at 10 uM incubated for 48 hrs by sulforhodamine B assay relative to control
A549 = assay: Cytotoxicity against human A549 cells assessed as cell viability at 10 uM incubated for 48 hrs by sulforhodamine B assay relative to control
SW-620 = assay: Cytotoxicity against human SW-620 cells assessed as cell viability at 10 uM incubated for 48 hrs by sulforhodamine B assay relative to control
DU-145 = assay: Cytotoxicity against human DU-145 cells assessed as cell viability at 10 uM incubated for 48 hrs by sulforhodamine B assay relative to control
PC-3 = assay: Cytotoxicity against human PC-3 cells assessed as cell viability at 10 uM incubated for 48 hrs by sulforhodamine B assay relative to control
HCT-15 = assay: Cytotoxicity against human HCT-15 cells assessed as cell viability at 10 uM incubated for 48 hrs by sulforhodamine B assay relative to control
MDA-MB-231 = assay: Cytotoxicity against human MDA-MB-231 cells assessed as cell viability at 10 uM incubated for 48 hrs by sulforhodamine B assay relative to control
NCI-H226 = assay: Cytotoxicity against human NCI-H226 cells assessed as cell viability at 10 uM incubated for 48 hrs by sulforhodamine B assay relative to control
SNB-75 = assay: Cytotoxicity against human SNB-75 cells assessed as cell viability at 10 uM incubated for 48 hrs by sulforhodamine B assay relative to control
786-0 = assay: Cytotoxicity against human 786-0 cells assessed as cell viability at 10 uM incubated for 48 hrs by sulforhodamine B assay relative to control
TK-10 = assay: Cytotoxicity against human TK-10 cells assessed as cell viability at 10 uM incubated for 48 hrs by sulforhodamine B assay relative to control
T47D = assay: Cytotoxicity against human T47D cells assessed as cell viability at 10 uM incubated for 48 hrs by sulforhodamine B assay relative to control
UO-31 = assay: Cytotoxicity against human UO-31 cells assessed as cell viability at 10 uM incubated for 48 hrs by sulforhodamine B assay relative to control
SK-MEL-28 = assay: Cytotoxicity against human SK-MEL-28 cells assessed as cell viability at 10 uM incubated for 48 hrs by sulforhodamine B assay relative to control
OVCAR-4 = assay: Cytotoxicity against human OVCAR-4 cells assessed as cell viability at 10 uM incubated for 48 hrs by sulforhodamine B assay relative to control
K562 = assay: Cytotoxicity against human K562 cells assessed as cell viability at 10 uM incubated for 48 hrs by sulforhodamine B assay relative to control
Hs-578T = assay: Cytotoxicity against human HS-578T cells assessed as cell viability at 10 uM incubated for 48 hrs by sulforhodamine B assay relative to control
Malme-3M = assay: Cytotoxicity against human Malme-3M cells assessed as cell viability at 10 uM incubated for 48 hrs by sulforhodamine B assay relative to control
SF-539 = assay: Cytotoxicity against human SF-539 cells assessed as cell viability at 10 uM incubated for 48 hrs by sulforhodamine B assay relative to control
OVCAR-5 = assay: Cytotoxicity against human OVCAR-5 cells assessed as cell viability at 10 uM incubated for 48 hrs by sulforhodamine B assay relative to control
BT-549 = assay: Cytotoxicity against human BT-549 cells assessed as cell viability at 10 uM incubated for 48 hrs by sulforhodamine B assay relative to control
MOLT-4 = assay: Cytotoxicity against human MOLT-4 cells assessed as cell viability at 10 uM incubated for 48 hrs by sulforhodamine B assay relative to control
SN12C = assay: Cytotoxicity against human SN12C cells assessed as cell viability at 10 uM incubated for 48 hrs by sulforhodamine B assay relative to control
HCT-29 = assay: Cytotoxicity against human […] cells assessed as cell viability at 10 uM incubated for 48 hrs by sulforhodamine B assay relative to control
RXF 393 = assay: Cytotoxicity against human RXF 393 cells assessed as cell viability at 10 uM incubated for 48 hrs by sulforhodamine B assay relative to control
SK-MEL-5 = assay: Cytotoxicity against human SK-MEL-5 cells assessed as cell viability at 10 uM incubated for 48 hrs by sulforhodamine B assay relative to control
UACC-62 = assay: Cytotoxicity against human UACC-62 cells assessed as cell viability at 10 uM incubated for 48 hrs by sulforhodamine B assay relative to control
HOP-92 = assay: Cytotoxicity against human HOP-92 cells assessed as cell viability at 10 uM incubated for 48 hrs by sulforhodamine B assay relative to control
KM12 = assay: Cytotoxicity against human KM12 cells assessed as cell viability at 10 uM incubated for 48 hrs by sulforhodamine B assay relative to control
SNB-19 = assay: Cytotoxicity against human SNB-19 cells assessed as cell viability at 10 uM incubated for 48 hrs by sulforhodamine B assay relative to control
MCF7 = assay: Cytotoxicity against human MCF7 cells assessed as cell viability at 10 uM incubated for 48 hrs by sulforhodamine B assay relative to control
RPMI-8226 = assay: Cytotoxicity against human RPMI-8226 cells assessed as cell viability at 10 uM incubated for 48 hrs by sulforhodamine B assay relative to control
COLO 205 = assay: Cytotoxicity against human COLO 205 cells assessed as cell viability at 10 uM incubated for 48 hrs by sulforhodamine B assay relative to control
NCI-H460 = assay: Cytotoxicity against human NCI-H460 cells assessed as cell viability at 10 uM incubated for 48 hrs by sulforhodamine B assay relative to control
HOP-62 = assay: Cytotoxicity against human HOP-62 cells assessed as cell viability at 10 uM incubated for 48 hrs by sulforhodamine B assay relative to control
SK-OV-3 = assay: Cytotoxicity against human SK-OV-3 cells assessed as cell viability at 10 uM incubated for 48 hrs by sulforhodamine B assay relative to control
IGROV-1 = assay: Cytotoxicity against human IGROV-1 cells assessed as cell viability at 10 uM incubated for 48 hrs by sulforhodamine B assay relative to control

O=S(=O)(NCCNc1nccc(-c2c(-c3cccc(F)c3)nc3sccn23)n1)c1ccc(Cl)cc1
viability at 10 µM (NCI/ADR-RES): 67.7% | viability at 10 µM (SF-268): 52.9% | viability at 10 µM (HL-60(TB)): 96% | viability at 10 µM (OVCAR-3): 65.4% | viability at 10 µM (M14): 56.6% | viability at 10 µM (A549): 32.1% | viability at 10 µM (SW-620): 59.6% | viability at 10 µM (DU-145): 54.2% | viability at 10 µM (PC-3): 56.9% | viability at 10 µM (HCT-15): 31.9% | viability at 10 µM (MDA-MB-231): 91.1% | viability at 10 µM (NCI-H226): 49.3% | viability at 10 µM (SNB-75): 78.9% | viability at 10 µM (786-0): 51.3% | viability at 10 µM (TK-10): 88.5% | viability at 10 µM (T47D): 43.2% | viability at 10 µM (UO-31): 23.9% | viability at 10 µM (SK-MEL-28): 74.7% | viability at 10 µM (OVCAR-4): 63.6% | viability at 10 µM (K562): 41.3% | viability at 10 µM (Hs-578T): 72.5% | viability at 10 µM (Malme-3M): 82.7% | viability at 10 µM (SF-539): 82.5% | viability at 10 µM (OVCAR-5): 93.3% | viability at 10 µM (BT-549): 71.3% | viability at 10 µM (MOLT-4): 46.8% | viability at 10 µM (SN12C): 48.7% | viability at 10 µM (HCT-29): 36% | viability at 10 µM (RXF 393): 69% | viability at 10 µM (SK-MEL-5): 36.5% | viability at 10 µM (UACC-62): 44.3% | viability at 10 µM (HOP-92): 76.6% | viability at 10 µM (KM12): 47.7% | viability at 10 µM (SNB-19): 66.5% | viability at 10 µM (MCF7): 24.7% | viability at 10 µM (RPMI-8226): 59.5% | viability at 10 µM (COLO 205): 40% | viability at 10 µM (NCI-H460): 30.1% | viability at 10 µM (HOP-62): 82.6% | viability at 10 µM (SK-OV-3): 94.9% | viability at 10 µM (IGROV-1): 15.8%

O=S(=O)(NCCCNc1nccc(-c2c(-c3cccc(F)c3)nc3sccn23)n1)c1cccc(F)c1
viability at 10 µM (NCI/ADR-RES): 17.6% | viability at 10 µM (SF-268): 55.6% | viability at 10 µM (HL-60(TB)): 40.5% | viability at 10 µM (OVCAR-3): 50.7% | viability at 10 µM (M14): 28.6% | viability at 10 µM (A549): 49.3% | viability at 10 µM (SW-620): 76.7% | viability at 10 µM (DU-145): 55.5% | viability at 10 µM (PC-3): 27.1% | viability at 10 µM (HCT-15): 22.6% | viability at 10 µM (MDA-MB-231): 75.9% | viability at 10 µM (NCI-H226): 23.2% | viability at 10 µM (SNB-75): 88.6% | viability at 10 µM (786-0): 66.3% | viability at 10 µM (TK-10): 72.3% | viability at 10 µM (T47D): -2.25% | viability at 10 µM (UO-31): 28.2% | viability at 10 µM (SK-MEL-28): 68.3% | viability at 10 µM (OVCAR-4): 26.8% | viability at 10 µM (K562): 20.1% | viability at 10 µM (Hs-578T): 63.7% | viability at 10 µM (Malme-3M): 63.2% | viability at 10 µM (SF-539): 86.4% | viability at 10 µM (OVCAR-5): 110% | viability at 10 µM (BT-549): 33.2% | viability at 10 µM (MOLT-4): 9.94% | viability at 10 µM (SN12C): 56.3% | viability at 10 µM (HCT-29): 30.6% | viability at 10 µM (RXF 393): 78.8% | viability at 10 µM (SK-MEL-5): 13.5% | viability at 10 µM (UACC-62): 6.36% | viability at 10 µM (HOP-92): 74.8% | viability at 10 µM (KM12): 29.9% | viability at 10 µM (SNB-19): 76.8% | viability at 10 µM (MCF7): 33.7% | viability at 10 µM (RPMI-8226): 28% | viability at 10 µM (COLO 205): 23.4% | viability at 10 µM (NCI-H460): 58.3% | viability at 10 µM (HOP-62): 61.3% | viability at 10 µM (SK-OV-3): 66% | viability at 10 µM (IGROV-1): 18.9%
